Tests used:
[1] = test system: T cells from skin draining lymph nodes; assay: In vivo OVA immunization and T cell re-stimulation; set-up: species or system mouse; details: for antigen-specific tetramer+IFNγ+ T cell responses: 7 days post immunization with OVA, 7 days ex vivo re-stimulation with OVA-loaded BMDC
Description: Flow cytometry: After FcR blockade, 7 days BMDCs were resuspended in MACS buffer (PBS with 1% FCS and 2 mM EDTA), and stained with the following fluorescently conjugated antibodies (BioLegend): anti-CD11c (clone N418), anti-I-A/I-E (clone M5/114.15.2), anti-CD40 (clone 3/23), anti-CD80(16-10A1), anti-CD69 clone (H1.2F3), anti-H-2Kb (clone AF6-88.5). Single cell suspension from the tumor or draining inguinal lymph nodes, or skin inguinal adipose tissue were resuspended in MACS buffer (PBS with 1% FCS and 2 mM EDTA), and stained with the following fluorescently conjugated antibodies (BioLegend): anti-CD8α (clone 53-6.7), anti-CD4 (clone RM4-5), anti-CD44 (clone IM7), anti-CD62L (MEL-14), anti-CD3 (17A2), anti-CD103 (2E7), anti-CD69 clone (H1.2F3), anti-CD45 (A20 or 30F11). LIVE/DEAD™ Fixable Violet Dead Cell Stain Kit (Molecular probes) was used to determine the viability of cells, and cells were stained for 20 minutes in PBS at 4° C. Draining inguinal lymph nodes T cells were stained with OVA-peptide tetramers at room temperature for 1 h. PE-conjugated H2K(b) SIINFEKL (OVA 257-264; SEQ ID NO: 1) and APC conjugated I-A(b) AAHAEINEA (OVA 329-337; SEQ ID NO: 2) were used. I-A(b) and H2K(b) associated with CLIP peptides were used as isotype controls. Tetramers were purchased for NIH tetramer core facility. in some experiments, FITC anti-CD8.1 (clone Lyt-2.1 CD8-E1) purchased from accurate chemical was used with tetramers. To determine absolute number of cells, COUNTBRIGHT counting beads (Molecular probes) were used, following the manufacturer's protocol. Appropriate isotype controls were used as a staining control. Data were acquired on a BD FACS ARIA or BD Fortessa. Data were analyzed using FlowJo software.
Intracellular staining: For intracellular cytokine staining, cells were stimulated with 50 ng/ml phorbol 12-myristate 13-acetate (PMA) and 500 ng/ml ionomycin (Sigma-Aldrich) in the presence of GolgiStop (BD) and brefeldin A for 4-5 h. Cells were then washed twice with PBS, and stained with LIVE/DEAD™ Fixable violet or green Dead Cell Stain Kit (Molecular probes) in PBS for 20 min at 4° C. Cells were washed with MACS buffer, and stained for appropriate surface markers for 20 min at 4° C. After two washes, cells were fixed and permeabilized using BD Cytofix/Cytoperm kit for 20 min at 4° C., then washed with 1× perm wash buffer (BD) per manufacturer's protocol. Intracellular cytokine staining was performed in 1× perm buffer for 20-30 min at 4° C. with the following conjugated antibodies all purchased from BioLegend: anti-Ki67 (clone 16A8), anti-IFN-γ (clone XMG1.2), anti TNFα (clone MP6-XT22), anti-Gata3 (16E10A23), anti-IL4(11B11), anti-IL10 (clone JES5-16E3). Data were acquired on a BD FACS ARIA or BD Fortessa. Data were analyzed using FlowJo software.
In vivo immunization and T cell re-stimulation: Female C57BL/6J mice aged 8 weeks, were immunized subcutaneously (s.c.) on the left lower back with either 150 μg/mouse endotoxin-free OVA plus 10 μg/mouse LPS emulsified in incomplete Freund's adjuvant, or with 150 μg/mouse endotoxin-free OVA, plus 65 μg/mouse oxPAPC or PGPC, plus 10 μg/mouse LPS emulsified in incomplete Freund's adjuvant. In some experiments mice were injected s.c. with OVA alone or with LPS emulsified in Alum. 7 or 40 days after immunization, CD4^+ T cells and CD8^+ T cells were isolated from the draining lymph nodes of immunized mice by magnetic cell sorting with anti-CD4 beads or anti-CD8 beads and columns (Miltenyi Biotech). Enriched cells were then sorted as live CD45^+CD3^+CD4^+ cells or live CD45^+CD3^+CD8^+ using FACS ARIA. Purity post-sorting was >98%. Sorted cells were then seeded in 96-well plates at a concentration of 100.000 cells per well in the presence of 10-20×10^3 DC pulsed with serial dilutions of OVA, starting at 1 mg/ml. […]

[2] = test system: BMDCs; assay: BMDC stimulation, cytokine ELISA and LDH release; format: cell-based, mouse; details: LPS alone or LPS priming 3 h then stimuli 21 h, ELISA
Description: Cell culture: BMDCs were generated by differentiating bone marrow in IMDM (Gibco), 10% B16-GM-CSF derived supernatant, 2 μM 2-mercaptoethanol, 100 U/ml penicillin, 100 μg/ml streptomycin (Sigma-Aldrich) and 10% FBS. 6 day after culture, BMDCs were washed with PBS and re-plated in IMDM with 10% FBS at a concentration of 1×10^6 cells/ml in a final volume of 100 μl. CD11c^+ DC purity was assessed by flow cytometry using BD Fortessa and was routinely above 80%. Splenic DCs from mice injected with B16-FLT3 for 15 days, were purified as CD11c^+MHC^+ live cells, then plated at a concentration of 1×10^6 cells/ml in a final volume of 100 μl in complete IMDM. To induce hyperactive or pyroptotic BMDCs, DCs were primed with LPS (1 μg/ml) for 3 hours, then stimulated with OxPAPC or PGPC (100 μg/ml) or alum (100 μg/ml) for 21 h in complete IMDM. […]
LDH Assay and ELISAs: Fresh supernatants were clarified by centrifugation after BMDC stimulation, then assayed for LDH release assay using the Pierce LDH cytotoxicity colorimetric assay kit (Life Technologies) following the manufacturer's protocol. Measurements for absorbance readings were performed on a Tecan plate reader at wavelengths of 490 nm and 680 nm. […] ELISA for IL-1β, TNFα, IL-10, IL-12p70, IFNγ, IL-2, IL-13, IL-4 and IL-17 were performed using eBioscience Ready-SET-Go! […]

[3] = test system: OT-II naïve CD4+ T cells; assay: OT-II in vitro T-cell stimulation; format: cell-based, mouse; details: OVA-loaded BMDCs co-cultured with OT-II T cells; ELISA
Description: OT-I and OT-II in vitro T-cell stimulation: Splenic CD8^+ and CD4^+ T cells were sorted from OT-I and OT-II mice by magnetic cell sorting with anti-CD8 beads or anti-CD4 beads respectively (Miltenyi Biotech). Sorted T cells were then seeded in 96-well plates at a concentration of 100.000 cells per well in the presence of either 20.000 or 10.000 DCs (5:1 or 10:1 ratio) that were pretreated with either LPS (activation stimuli) or LPS+PGPC (hyperactivation stimuli) or LPS+Alum (pyroptotic stimuli) and pulsed (or not) with OVA protein or SIINFEKL (SEQ ID NO: 1) peptide at 100 μg/ml for 2 hours. 5 days post culture, supernatants were collected and clarified by centrifugation for short-term storage at −20° C. and cytokine measurement by ELISA.
Intracellular staining: For intracellular cytokine staining, cells were stimulated with 50 ng/ml phorbol 12-myristate 13-acetate (PMA) and 500 ng/ml ionomycin (Sigma-Aldrich) in the presence of GolgiStop (BD) and brefeldin A for 4-5 h. Cells were then washed twice with PBS, and stained with LIVE/DEAD™ Fixable violet or green Dead Cell Stain Kit (Molecular probes) in PBS for 20 min at 4° C. Cells were washed with MACS buffer, and stained for appropriate surface markers for 20 min at 4° C. […] Data were analyzed using FlowJo software.

[4] = test system: FLT3-DCs; assay: FLT3-DC stimulation, cytokine ELISA and LDH release; format: cell-based, mouse; details: ELISA
Description: FIGS. 14A-B. Oxidized phospholipids induce hyperactive cDC1 and cDC2 cells that display a hypermigratory phenotype. (A) Wild-type or NLRP3^−/− or Casp1/11^−/− BMDCs generated using FLT3L were either left untreated (none) or treated with LPS alone, or Alum alone, or PGPC alone for 24 h, or BMDCs were primed for 3 h with LPS, then treated with indicated stimuli for 21 h. IL-1β and TNFα release was monitored by ELISA. The percentage of cell death was measured by LDH release in the cell supernatants. Means and SDs from three replicates are shown and data are representative of at least three independent experiments. (B) Wild-type BMDCs generated using FLT3L were sorted as cDC1 or cDC2 cells then treated with indicated stimuli as in A. IL-1β and TNFα release was monitored by ELISA. The percentage of cell death was measured by LDH release in the cell supernatants. Means and SDs from three independent experiments done in two different laboratories.
Virtually all studies assessing the state of cell-hyperactivation have focused on the ability of bone marrow derived DC (BMDCs), generated with the cytokine granulocyte-macrophage colony-stimulating factor (GM-CSF), to release IL-1β while retaining viability. […] To examine whether conventional DCs can achieve a hyperactivation state, we used BMDCs generated using the DC hematopoietin Fms-like tyrosine kinase 3 ligand (Flt3L). […]

[5] = OVA immunization, 40 days post-immunization, ex vivo re-stimulation with OVA-loaded BMDCs

Compound	antigen-specific tetramer+IFNγ+ T cell responses [1]	effector and memory T cell generation ([1]; OVA plus LPS plus lipid, in IFA)	IL-1β release [2]	release of IL-10 and IL-13 (TH2-associated cytokines) [3]	T central memory cells (TCM) in dLN ([1]; 40 days post-immunization with OVA)	IFNγ production by re-stimulated T cells [1, 5]	IL-10, IL-4 and IL-13 production by re-stimulated T cells [1, 5]	IL-1β release [4]
CCCCCCCCCCCCCCCC(=O)OC[C@H](COP(=O)([O-])OCC[N+](C)(C)C)OC(=O)CCCC(=O)O [PGPC, [(2R)-2-(4-carboxybutanoyloxy)-3-hexadecanoyloxypropyl] 2-(trimethylazaniumyl)ethyl phosphate]	highest frequency of tetramer+IFNγ+ responses	enhance the magnitude of effector and memory T cell generation						
lipopolysaccharide [LPS]	higher IFNγ effector function		did not induce the release of IL-1β	large amounts of IL-10, and IL-13	less abundant	producing IFNγ, IL-10, IL-4 and IL-13	producing IFNγ, IL-10, IL-4 and IL-13	did not induce IL-1β release from DCs

Source: US20230076515A1, “STIMULI THAT HYPERACTIVATE RESIDENT DENDRITIC CELLS FOR CANCER IMMUNOTHERAPY” (Children's Medical Center Corporation, priority 2019, published 2023)
